Data on 6 molecules can be found in US9156836B2, “Tricyclic triazole compounds that modulate HSP90 activity” (Synta Pharmaceuticals Corp., priority 2008, dated 2015).

By pIC50 is commonly meant −log10 of the IC50, conventionally taken in molar units.

pIC50: −log10 of the molar value.

One test has as its system Her2. The test can be described thus: Degradation of Her2 in BT-474 cells, Western blot (Method 1). Type of test: cell-based, human. Particulars: 0.5 μM, overnight. The method, then: Human high-Her2 breast carcinoma BT474 (HTB-20), SK-BR-3 (HTB-30) and MCF-7 breast carcinoma (HTB-22) from American Type Culture Collection, VA, USA were grown in Dulbecco's modified Eagle's medium with 4 mM L-glutamine and antibiotics (100 IU/ml penicillin and 100 ug/ml streptomycine;GibcoBRL). To obtain exponential cell growth, cells were trypsinized, counted and seeded at a cell density of 0.5×10^6 cells/ml regularly, every 3 days. All experiments were performed on day 1 after cell passage.
BT-474 cells are treated with 0.5 μM, 2 μM, or 5 μM of 17AAG (a positive control) or 0.5 μM, 2 μM, or 5 μM of a compound of the invention overnight in DMEM medium. After treatment, each cytoplasmic sample is prepared from 1×10^6 cells by incubation of cell lysis buffer (#9803, cell Signaling Technology) on ice for 10 minutes. The resulting supernatant used as the cytosol fractions is dissolved with sample buffer for SDS-PAGE and run on a SDS-PAGE gel, blotted onto a nitrocellulose membrane by using semi-dry transfer. Non-specific binding to nitrocellulose is blocked with 5% skim milk in TBS with 0.5% Tween at room temperature for 1 hour, then probed with anti-Her2/ErB2 mAb (rabbit IgG, #2242, Cell Signaling) and anti-Tubulin (T9026, Sigma) as housekeeping control protein. […]
(A western blot detects proteins with antibodies after separation by electrophoresis.)
For the molecule `C=CCNC1=C2C[C@@H](C)C[C@H](OC)[C@H](O)[C@@H](C)/C=C(\C)[C@H](OC(N)=O)[C@@H](OC)/C=C\C=C(/C)C(=O)NC(=CC1=O)C2=O` [Compound 17AAG, 17-allylamino-17-demethoxygeldanamycin], the “Degradation of Her2” value was “partial degradation”.

The next test concerns Hsp90. The test can be described thus: IC50 of compounds of the invention (Table 2; Her2 degradation Method 2, MV-4-11 cell survival, Cell Counting Kit-8). The test is classed as cell-based, human. As to conditions: text calls it IC50 for Her2 degradation; Method 2: MV-4-11 cells, 72 hours; read-out: IC50 of compounds of the invention for inhibition of Hsp90. Here is the method: MV-4-11 cells (20,000 cells/well) were cultured in 96-well plates and maintained at 37° C. for several hours. The cells were treated with a compound of the invention or 17AAG (a positive control) at various concentrations and incubated at 37° C. for 72 hours. Cell survival was measured with Cell Counting Kit-8 (Dojindo Laboratories, Cat. # CK04).
For the molecule `NC(=O)c1nnc2n1CCCCc1cc(O)cc(O)c1-2` [Compound 2, 10,12-dihydroxy-5,6,7,8-tetrahydrobenzo[c][1,2,4]triazolo[4,3-a]azocine-3-carboxamide], the pIC50 was 4.91.
The same measure, in the same setting: the same measure for `NC(=O)c1nnc2n1C/C=C\Cc1cc(O)cc(O)c1-2` [Compound 3, (Z)-10,12-dihydroxy-5,8-dihydrobenzo[c][1,2,4]triazolo[4,3-a]azocine-3-carboxamide]: 4.77; for `NC(=O)c1nnc2n1CC(O)C(O)Cc1cc(O)cc(O)c1-2` (stereo not drawn) [Compound 4, 6,7,10,12-tetrahydroxy-5,6,7,8-tetrahydrobenzo[c][1,2,4]triazolo[4,3-a]azocine-3-carboxamide]: 4.61.
As to `NC(=O)c1nnc2n1CC(Br)C(Br)Cc1cc(O)cc(O)c1-2` (stereo not drawn) [Compound 5, 6,7-dibromo-10,12-dihydroxy-5,6,7,8-tetrahydrobenzo[c][1,2,4]triazolo[4,3-a]azocine-3-carboxamide compound with dibromine (1:1)], the pIC50 was 4.63.
For `NC(=O)c1nnc2n1CCCc1cc(O)cc(O)c1-2` [Compound 12, 9,11-dihydroxy-6,7-dihydro-5H-benzo[c][1,2,4]triazolo[4,3-a]azepine-3-carboxamide], the pIC50 was 4.06.
